{
  "source": "patent US8361999B2",
  "about": "“Methods of treating cholesterol gallstone disease with ezetimibe” (Pontificia Universidad Catolica de Chile, priority 2005, dated 2013)",
  "system": "C57BL/6J mice",
  "test": "Lithiasis of the gallbladder and cholesterol crystals in gallbladder bile, protocol #1 (14 days)",
  "format": "in vivo, mouse",
  "details": "for formation of cholesterol crystals and cholesterol gallstones: C57BL/6 mice on lithogenic diet plus ezetimibe",
  "from_the_text": "Experimental Animal Disease Models. Spontaneous cholelithiasis is extremely rare in experimental or wild animals, probably because they secrete low levels of cholesterol into the bile and have therefore non-saturated cholesterol bile. However, different animal models (rabbit, hamster, prairie dog, squirrel and mouse) develop cholelithiasis similar to the human disease on cholesterol rich plus bile salts (cholic acid) and sometimes triglycerides rich experimental diets. The mouse is the best characterized experimental model where the development of the disease is dependent of a diet known as “lithogenic” (1.25% cholesterol, 0.5% cholic acid, 15% fat). Under these conditions most of the available mouse strains develop cholesterol cholelithiasis in variable proportions and times (Paigen, 2002). It has been established that there are strains more susceptible or more resistant to develop cholelithiasis, which could be genetically determined. The mice strains C57L and C57BL/6 are particularly susceptible to develop cholelithiasis (80-100% of the animals develop the disease in 2-4 weeks on lithogenic diet) (Paigen, 2002; Bouchard et al., unpublished data communicated in www.jax.org/pub-cgi/phenome). Studies performed in these models during the last years have been vital in the better understanding of the disease and for the discovery of genes that are potentially relevant in generating susceptibility to the illness (Paigen, 2002). In this preclinical innovation work we use the mouse strain C57BL/6.\nWe used mice C57BL/6J susceptible to the development of cholelithiasis originally obtained from Jackson Corp (Bar Harbor, Me., USA) and the colonies were grown in our Laboratory of Gastroenterology, Facultad de Medicina, P. Universidad Católica de Chile. The experimental groups were fed a control chow diet low in cholesterol (<0.02% cholesterol, Prolab RMH3000, PMI Feeds Inc., St. Louis, Mo.) or a lithogenic diet (1.25% cholesterol, 0.5% cholic acid, 15% fat, TD90221, Harlan Teklad, Madison, Wis.) (Amigo et al. 2000). These mice were also treated with Ezetimibe (Zetia®, Merk/Schering Plough) or placebo. In protocol #1 Zetia® tablets were grinded in a porcelain mortar and dissolved in water to be administered to the mice in one daily dose (08 h) of 5 mg/Kg weight by gavage in a final volume of […]; the control groups were given the same volume of water by gavage without the drug. In protocol #2 Zetia® tablets were grinded in the same way described above, dissolved in 200 cc 100% ethanol (Merck) and added to the lithogenic diet previously grinded and dried for 48 h at room temperature. C57BL/6J mice received this lithogenic diet plus Zetia® in a estimated dose of 5-6 mg/kg/day during 30 days (the mice consume 4-5 gr of diet per day). […]",
  "data": [
    {"molecule": "O=C1[C@H](CC[C@H](O)c2ccc(F)cc2)[C@@H](c2ccc(O)cc2)N1c1ccc(F)cc1", "note": "[Ezetimibe, (−)-1-(4-fluorophenyl)-(3R)-[3-(4-fluorophenyl)-(.S)-hydroxypropyl]-(4S)-(4-hydroxyphenyl)-2-azetidinone]", "values": [
      {"measurement": "formation of cholesterol crystals and cholesterol gallstones", "value": "complete inhibition"},
      {"measurement": "formation of cholesterol crystals and cholesterol gallstones", "setting": "listed as ezetimibe", "value": "inhibited"},
      {"measurement": "development of cholelithiasis or cholesterol crystals in the bile", "setting": "control diet low in cholesterol plus Ezetimibe", "value": "did not develop cholelithiasis or cholesterol crystals"},
      {"measurement": "mice that developed gallstones or cholesterol crystals in the gallbladder", "setting": "lithogenic diet plus Ezetimibe 5 mg/kg/day by gavage, 100% in lithogenic diet plus water", "value": "none"}
    ]}
  ]
}
